Reference: patent publication US20230219965A1 (KSQ Therapeutics, Inc., priority 2020, published 2023)
Read-outs that look alike come from different tables or passages of the source.

What was measured:
[1] = Liver microsomal metabolic stability, human liver microsomes (HLM); conditions: human, liver microsomes
[2] = ADME solubility determination in PBS at pH 2.0 and pH 7.4; assay type: physicochemical; conditions: phosphate buffered saline, 25 °C, thermodynamic from solid
In short: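 Solubility was read by LC-MS/MS on centrifuged supernatants, calibrated to a known-concentration standard and corrected for dilution. Compound, dried down from 10 mM DMSO stock, was equilibrated 24 h at 25° C with shaking in PBS at pH 2.0 or pH 7.4.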

[3] = target: USP1/UAF1 enzyme (Homo sapiens, UniProt O94782); assay: USP1/UAF1 deubiquitination assay (ubiquitin-rhodamine 110 substrate); assay type: biochemical; conditions: read-out: USP1 IC50 (Ub-Rho)
In short: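 Cleavage of 150 nM ubiquitin-rhodamine 110 by 0.05 nM USP1/UAF1 was followed as fluorescence (Ex480/Em540, kinetic, 30 min) in Tris-HCl pH 7.8 buffer with EDTA, BSA, DTT and Tween-20. Compounds, top 10 μM, were preincubated with enzyme 10 min; % inhibition against no-enzyme and DMSO wells gave four-parameter IC50s.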

[4] = system: Ub-PCNA levels in the nucleus of ES2 cells (USP1 activity); assay: ES2 Ub-PCNA immunofluorescence (IF) assay; assay type: cell-based; conditions: Homo sapiens, ES-2; ES2 cells, 3 hours, Ub-PCNA immunofluorescence; read-out: USP1 IC50 (Ub-PCNA)
In short: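 AC50 derived from percent Ub-PCNA-positive nuclei, positivity set by a 95% cutoff from untreated-well intensities. Readout by imaging immunofluorescence (anti-Ub-PCNA, DAPI nuclear mask) after methanol fixation. Compound exposure: 3 h at 37° C, 0.3% DMSO final, on cells plated overnight.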

[5] = Liver microsomal metabolic stability, rat liver microsomes (RLM); conditions: rat, liver microsomes, t1/2 (min) in RLM, 1 μM compound, 1 mg/mL microsomes, NADPH
Description: Samples were prepared by adding 222.5 μL of a master solution (100 mM phosphate buffer and 1 mg/mL liver microsomes (HLM or RLM)) and 25 μL of a 10 mM NADPH solution to incubation plates, which were then warmed for 10 min. Each compound was separately dissolved in DMSO to prepare 10 mM stock solutions, which were then diluted to 100 μM with acetonitrile. A reaction was started by adding 2.5 μL of the 100 μM solution of each compound to separate incubation plates such that the final concentration of for each compound in each plate was 1 μM.
25 μL aliquots of each sample were taken at 0.5, 5, 10, 15, 20 and 30 minutes, and the reaction was stopped by adding 5 volumes of cold acetonitrile with IS (100 nM alprazolam, 200 nM caffeine and 100 nM tolbutamide). The samples were then centrifuged at 3,220 G for 30 minutes, and 100 μL of the supernatant fluid was mixed with 100 μL of ultra-pure H2O.
The samples were then analyzed by LC-MS/MS. Peak areas were determined from extracted ion chromatograms. Slope values (k) were determined by linear regression of the natural logarithm of the remaining percentage of the compound vs. incubation time curve. The in vitro half-life (in vitro t1/2) was determined from the slope value using the following equation:

[6] = pH 2, aqueous buffer, PBS pH 2.0, 25° C., read-out: Solubility at pH 2.0
[7] = pH 7.4, aqueous buffer, PBS pH 7.4, 25° C., read-out: Solubility at pH 7.4

Sequence of USP1/UAF1 enzyme (O94782 whole entry): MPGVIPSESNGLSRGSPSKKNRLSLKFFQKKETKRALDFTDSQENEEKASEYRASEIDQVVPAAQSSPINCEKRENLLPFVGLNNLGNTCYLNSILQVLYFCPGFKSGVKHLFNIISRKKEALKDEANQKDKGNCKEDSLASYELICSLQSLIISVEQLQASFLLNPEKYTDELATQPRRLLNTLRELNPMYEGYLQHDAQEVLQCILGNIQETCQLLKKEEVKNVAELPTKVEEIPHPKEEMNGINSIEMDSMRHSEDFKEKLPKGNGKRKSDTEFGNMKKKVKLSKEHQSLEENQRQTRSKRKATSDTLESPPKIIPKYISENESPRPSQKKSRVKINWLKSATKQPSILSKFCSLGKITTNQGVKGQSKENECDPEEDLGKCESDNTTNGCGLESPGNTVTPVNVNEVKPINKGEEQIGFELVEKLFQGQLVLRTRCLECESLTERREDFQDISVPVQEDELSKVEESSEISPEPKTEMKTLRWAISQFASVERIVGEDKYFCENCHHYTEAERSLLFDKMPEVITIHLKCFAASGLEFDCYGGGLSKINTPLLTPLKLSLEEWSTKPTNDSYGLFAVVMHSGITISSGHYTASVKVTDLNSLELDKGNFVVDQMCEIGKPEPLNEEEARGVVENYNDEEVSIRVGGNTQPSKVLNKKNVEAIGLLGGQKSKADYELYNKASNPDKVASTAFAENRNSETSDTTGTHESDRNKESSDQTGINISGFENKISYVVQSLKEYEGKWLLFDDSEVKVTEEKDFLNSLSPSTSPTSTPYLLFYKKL
Sequence of USP1/UAF1 enzyme (Q8TAF3 whole entry partner): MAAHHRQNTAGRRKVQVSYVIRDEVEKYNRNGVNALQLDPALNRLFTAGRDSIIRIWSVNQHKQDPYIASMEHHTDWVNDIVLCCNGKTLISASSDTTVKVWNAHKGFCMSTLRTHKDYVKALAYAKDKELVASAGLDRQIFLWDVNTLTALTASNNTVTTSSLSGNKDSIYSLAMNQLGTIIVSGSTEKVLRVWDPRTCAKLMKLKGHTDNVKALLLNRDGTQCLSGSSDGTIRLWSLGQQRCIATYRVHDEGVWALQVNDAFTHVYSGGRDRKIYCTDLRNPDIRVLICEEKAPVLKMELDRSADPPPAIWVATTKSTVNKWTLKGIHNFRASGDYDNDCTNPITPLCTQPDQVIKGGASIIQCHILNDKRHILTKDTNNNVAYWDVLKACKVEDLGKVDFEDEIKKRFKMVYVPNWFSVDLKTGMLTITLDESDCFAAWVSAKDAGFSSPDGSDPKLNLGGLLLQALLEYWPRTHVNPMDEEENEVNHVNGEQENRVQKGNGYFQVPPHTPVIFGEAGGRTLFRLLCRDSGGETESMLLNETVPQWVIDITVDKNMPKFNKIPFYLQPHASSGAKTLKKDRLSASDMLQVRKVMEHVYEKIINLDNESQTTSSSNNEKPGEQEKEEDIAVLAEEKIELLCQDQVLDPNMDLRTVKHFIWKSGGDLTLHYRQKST

| half-life at 1 μM [1] | solubility at 24 h [2, 6] | solubility at 24 h [2, 7] | IC50 [3] | IC50 [4] | half-life at 1 μM [5] | Compound |
| --- | --- | --- | --- | --- | --- | --- |
| < 25 min | < 10 µM | < 10 µM | < 0.1 µM | < 0.1 µM | > 25 min | CC(C)n1cc(C(F)(F)F)nc1-c1ccc([C@H](C)N2C(=O)CCn3nc(-c4c(Cl)cnn4C(C)C)nc32)cc1 [Example 177] |
| < 25 min | ≥ 10 µM | < 10 µM | < 0.1 µM | < 0.1 µM | < 25 min | CC(C)n1cc(C(F)(F)F)nc1-c1ccc([C@@H](C)N2C(=O)CCn3nc(-c4c(Cl)cnn4C(C)C)nc32)cc1 [Example 178] |
| < 25 min | < 10 µM | < 10 µM | < 0.1 µM | 0.1 to 0.5 µM | < 25 min | CCn1cc(C(F)(F)F)nc1-c1ccc([C@@H](C)N2C(=O)CCn3nc(-c4c(Cl)cnn4C(C)C)nc32)cc1OC [Example 180] |
| < 25 min | < 10 µM | < 10 µM | < 0.1 µM | < 0.1 µM | > 25 min | CCn1cc(C(F)(F)F)nc1-c1ccc([C@H](C)N2C(=O)CCn3nc(-c4c(Cl)cnn4C(C)C)nc32)cc1F [Example 181] |
| < 25 min | < 10 µM | < 10 µM | < 0.1 µM | < 0.1 µM | < 25 min | CCn1cc(C(F)(F)F)nc1-c1ccc([C@@H](C)N2C(=O)CCn3nc(-c4c(Cl)cnn4C(C)C)nc32)cc1F [Example 182] |

Second part, the compound before the results:

| Compound | half-life at 1 μM [1] | solubility at 24 h [2, 6] | solubility at 24 h [2, 7] | IC50 [3] | IC50 [4] | half-life at 1 μM [5] |
| --- | --- | --- | --- | --- | --- | --- |
| COc1ncnc(C2CC2)c1-c1nc2n(n1)CCC(=O)N2C(C)c1ccc(-c2nc(C(F)(F)F)cn2C(C)C)cc1 (stereo not drawn) [Example 169] | > 25 min | ≥ 10 µM | < 10 µM | < 0.1 µM | 0.1 to 0.5 µM | > 25 min |
| COc1ncnc(C2CC2)c1-c1nc2n(n1)CCC(=O)N2Cc1ccc(-c2nc(C(F)(F)F)cn2C)c(F)c1 [Example 170] | > 25 min | ≥ 10 µM | ≥ 10 µM | < 0.1 µM | < 0.1 µM | > 25 min |
| CCn1cc(C(F)(F)F)nc1-c1ccc(CN2C(=O)CCn3nc(-c4c(OC)ncnc4C4CC4)nc32)cc1 [Example 171] | > 25 min | ≥ 10 µM | ≥ 10 µM | < 0.1 µM | < 0.1 µM | > 25 min |
| COc1ncnc(C2CC2)c1-c1nc2n(n1)CCC(=O)N2Cc1ccc(-c2nc(C(F)(F)F)cn2C(C)C)c(Cl)c1 [Example 172] | > 25 min | ≥ 10 µM | ≥ 10 µM | < 0.1 µM | 0.1 to 0.5 µM | > 25 min |
| COc1ncnc(C2CC2)c1-c1nc2n(n1)CCC(=O)N2[C@@H](C)c1ccc(-c2nc(C(F)(F)F)cn2C(C)C)c(F)c1 [Example 173] | > 25 min | ≥ 10 µM | ≥ 10 µM | < 0.1 µM | < 0.1 µM | > 25 min |
| COc1ncnc(C2CC2)c1-c1nc2n(n1)CCC(=O)N2[C@H](C)c1ccc(-c2nc(C(F)(F)F)cn2C(C)C)c(F)c1 [Example 174] | > 25 min | ≥ 10 µM | ≥ 10 µM | < 0.1 µM | < 0.1 µM | > 25 min |
| CCn1cc(C(F)(F)F)nc1-c1ccc(CN2C(=O)CCn3nc(-c4c(OC)ncnc4C4CC4)nc32)cc1Cl [Example 175] | > 25 min | ≥ 10 µM | ≥ 10 µM | < 0.1 µM | < 0.1 µM | > 25 min |
| CCn1cc(C(F)(F)F)nc1-c1c(F)cc(CN2C(=O)CCn3nc(-c4c(OC)ncnc4C4CC4)nc32)cc1OC [Example 176] | > 25 min | ≥ 10 µM | ≥ 10 µM | < 0.1 µM | < 0.1 µM | > 25 min |
